{
  "source": "patent US12558369B2",
  "about": "“Compositions and methods of treating Fanconi Anemia” (Dana-Farber Cancer Institute, Inc., priority 2015, dated 2026)",
  "key": {"[1]": {"test_system": "primary HSPCs from bone marrow of FA patients", "assay": "Colony forming assay of primary CD34+ bone marrow cells from FA patients", "type": "cell-based, human", "details": "methylcellulose, colonies after 10 days", "excerpt": "(§1) (A) Hierarchical clustering and heat-map of the expression of TGF-β pathway genes in human FA and non-FA bone marrow samples using gene set enrichment analysis. (B-F) Colony forming assays using primary CD34+ bone marrow cells from five FA patients. Cells were transduced with lentiviruses encoding shControl, shTP53 or shSMAD3 followed by selection for puromycin resistance and then plated in methylcellulose cultures or the cells were directly plated in methylcellulose cultures containing GC1008 for colony growth. The hematopoietic colonies were counted after 10 days in culture. (G-I) Colony forming assays using FA-like CD34+ cells from human cord blood. As shown in the schematic (G), FA-like CD34+ cells were generated by transducing human cord blood CD34+ cells with lentivirus encoding shFANCD2. […] Hematopoietic colonies were counted after 10-14 days in culture (I). (J) Colony forming assay of FA-like CD34+ cells with GC1008 treatment. Hematopoietic colonies were counted after 10-14 days in culture. […] Human cells were analyzed in the peripheral blood at 2 weeks post transplantation. […] Representative images (L) and quantification (M) of γH2AX foci in cord blood CD34+ cells transduced with lentivirus encoding shFANCD2 or shControl. […] Cells were then analyzed for γH2AX foci by immunofluorescence. Thirty to hundred cells with more than 5 foci were counted for each sample. […]"}, "[2]": {"test_system": "FA-like CD34+ cells from human cord blood", "assay": "Colony forming assay of FA-like CD34+ cells", "type": "cell-based", "details": "GC1008 10 μg/mL, colonies after 10-14 days", "excerpt": "as §1, with “blood.” for “blood. As shown in the schematic (G), FA-like CD34+ cells were generated by transducing human cord blood CD34+ cells with lentivirus encoding shFANCD2.”, “(J) Colony forming assay of FA-like CD34+ cells with GC1008 treatment.” left out\n(§2) (Dataset: GSE16334). […] Cells were cultured in methylcellulose medium post MMC treatment (2 h at 100 ng/mL) and hematopoietic colonies were counted after 10 days in culture. […] Hematopoietic colonies were counted after 10-14 days in culture. […]"}, "[3]": {"test_system": "FA-like CD34+ cells in NSG mice", "assay": "In vivo xenograft assay of FA-like CD34+ cells", "set-up": "species or system mouse", "details": "10 mg/kg, 3 doses per week for 2 weeks, peripheral blood at 2 and 8 weeks", "excerpt": "as §1, with “blood.” for “blood. As shown in the schematic (G), FA-like CD34+ cells were generated by transducing human cord blood CD34+ cells with lentivirus encoding shFANCD2.”, “(J) Colony forming assay of FA-like CD34+ cells with GC1008 treatment.” left out\nas §2"}, "[4]": {"test_system": "FA-like HSPCs", "assay": "γH2AX and 53BP1 foci after MMC in FA-like HSPCs", "type": "cell-based, human", "excerpt": "as §1, with “(J) Colony forming assay of FA-like CD34+ cells with GC1008 treatment.” left out\nHSPCs. […] Representative images (F) and quantification (G) of 53BP1 foci are shown."}, "[5]": {"test_system": "Fancd2−/− stromal cells", "assay": "Immunoblot of phosphorylated Erk1/2 in bone marrow stromal cells", "type": "cell-based, mouse", "experimental": "FIG. 2. Characterization of FA murine primary bone marrow stromal fibroblast. • A) Survival of Fancd2+/+ or Fancd2−/− stromal cells in the presence of MMC. Data are shown in triplicate. […] (Left panel) Active mouse Tgfβ1 serum levels in the culture supernatant of Fancd2+/+ or Fancd2−/− stromal cells were evaluated by ELISA. (Right panel) qRT-PCR analysis of Tgfb1 mRNA expression. Data are shown the average of three independent experiments. Error bars represent s.e.m. • C) Immunoblots of phosphorylated Erk1/2 in stromal cells treated with Tgfβ for the indicated time.\nFIG. 3. […] Error bars represent s.e.m.\nHuman FA cells EUFA316 were grown in RPMI1640 (Life Technologies) supplemented with 10% fetal calf serum. Fancd2^+/+ and Fancd2^−/− bone marrow stromal cells were established by culturing whole bone marrow in DMEM with 10% FBS. Fancd2^−/− stromal cells were complemented with human FANCD2 by retroviral transduction of FANCD2 cDNA in pMMP-PURO vector, followed by selection in puromycin. Whole cell extracts were prepared by lysing cells in radioimmunoprecipitation assay buffer (50 mmol/L Tris, pH 7.3, 150 mmol/L NaCl, 1 mmol/L EDTA, 1% Triton X-100, 0.5% Na-deoxycholate, and 0.1% SDS) with complete protease inhibitor, NaVO4, and NaF."}, "[6]": {"test_system": "Fancd2−/− BM Stromal cells", "assay": "Colony forming capacity of bone marrow stromal cells", "type": "cell-based, mouse", "details": "1 μM Mek-i", "experimental": "FIG. 3. […] Fancd2+/+ stromal cells shown as a control. • B) Colony forming capacity of Fancd2−/− BM Stromal cells is improved by treatment with 1 μM Mek-i. • C) Immunoblot analysis showing deletion of Tgfbr1, Smad3 and p53 in murine Fancd2+/+ and Fancd2−/− stromal cells • D) Survival of Fancd2−/− stromal cells with deletion of Tgfbr1, Smad3 or p53 in presence of MMC. Error bars represent s.e.m.\nFIG. 9. […] Representative image of colonies of Fancd2+/+ and Fancd2−/− cells incubated with or without 1 μM Mek inhibitor.\n(§3) For survival assays, cells were seeded at a density of 1×10^3 cells per well in 96-well plates. After 72 hours of culture in indicated concentrations of MMC or post exposure of acetaldehyde, viability was assessed using CellTiterGlo reagent (Promega). In order to assess clonogenicity, cells were seeded at a low density (500-1000 cells per well) in 6-well plates and allowed to form colonies. The cells were then fixed in methanol/20% acetic acid and stained with 1% crystal violet. Colony formation was assessed by solubilizing crystal violet stain with methanol and quantifying UV absorbance for each condition."}, "[7]": {"test_system": "EUFA316 (FA-G fibroblasts)", "assay": "MMC sensitivity survival assay of FA cells with TGFβ pathway inhibitors", "type": "cell-based, human", "experimental": "FIG. 1. TGFβ pathway disruption enhances FA cellular growth. • A) RIGER P value analysis to identify top candidate genes. • B) Clonogenic survival of GM6914 (FA-A fibroblasts) and FANCA-corrected GM6914 cells after shRNA mediated knockdown of SMAD3. Cells were treated with increasing doses of MMC and plated for 10-12 days. The average of two experiments is presented; error bars represent s.e.m.\nas §3\nas §3, with “3-6 days” for “72 hours”, “Colonies were counted after” for “Colony formation was assessed by solubilizing”, “staining.” for “stain with methanol and quantifying UV absorbance for each condition.”"}, "[8]": {"test_system": "U2OS cells", "assay": "NHEJ reporter assay", "type": "cell-based, human", "details": "template reporter assay"}, "[9]": {"test_system": "U2OS cells", "assay": "Immunoblot of DNA-PK phosphorylation", "type": "cell-based, human"}, "[10]": {"test_system": "Fancd2-deficient mice", "assay": "pIpC physiological stress-induced bone marrow failure, LT-HSC DNA damage", "type": "in vivo, mouse", "excerpt": "FIG. 13. […] Mice were pretreated in vivo with either no Tgfβ inhibitor, the neutralizing antibody to Tgfβ 1, 2, 3, or the Tgfβ receptor kinase inhibitor, Galunisertib."}, "[11]": {"test_system": "Fancd2−/− HSPCs", "assay": "Clonogenic assay of HSPCs in methylcellulose", "type": "cell-based, mouse", "details": "TGF-β1 1 ng/mL, Ab 10 μg/mL or SD208 10 μM; colonies after 7-10 days", "experimental": "(A) Expression of phospho-Smad2/3 proteins in HSPCs from WT and Fancd2−/− mice as detected by flow cytometric analysis. (B) Quantification of mean fluorescence intensity (MFI) of phospho-Smad2/3 staining by flow cytometric analysis shown in (A) in HSPCs from WT and Fancd2−/− mice. (C) Fancd2−/− HSPCs are more sensitive to TGF-β1 than WT HSPCs. Sorted Lin− cells from WT or Fancd2−/− mice were exposed to TGF-β1. After 5 days in culture, LSK cells were analyzed by flow cytometry and quantified. Data are shown after normalizing to untreated WT group. […] Sorted Lin− cells from WT and Fancd2−/− mice were exposed to TGF-β1 (1 ng/mL) with or without TGF-beta 1,2,3 Ab (10 μg/mL) or SD208 (10 μM), and viable cells were counted after 5 days in culture. Data shown are after normalizing to untreated WT group. Error bars represent mean±s.e.m. (F) Clonogenic assay of WT and Fancd2−/− HSPCs treated with TGF-β1, TGF-beta 1, 2, 3 Ab or SD208. […] Hematopoietic colonies were counted after 7-10 days in culture. […] (I) Representative FACS plots of LSK cells analyzed by flow cytometry for GFP expression after 5 days in vitro culture in stem cell culture medium. […] Luciferase activity was measured. (L) Binding of FANCD2 to SMAD1 promoter (region −2108 to −1950 bp) upon DNA damage as detected by ChIP assay using anti-FANCD2 antibody in corrected GM6914 (+FANCA) but not GM6914 (+Vector) fibroblast cells. […]"}, "[12]": {"details": "mice pretreated in vivo, LT-HSCs isolated"}},
  "note": "Entries after “also recorded” stand apart in the source; their conditions may differ.",
  "data": [
    {"compound": "GC1008: anti-human TGF-β neutralizing antibody", "values": [
      {"measurement": "clonogenic defects of primary HSPCs from FA patients", "setting": "[1]", "value": "rescued the clonogenic defects"},
      {"measurement": "clonogenic capacity of FA-like HSPCs", "setting": "[2]", "value": "markedly rescuing the clonogenic capacity"},
      {"measurement": "engraftment of primary FA-like CD34+ cells", "setting": "[3]", "value": "enhanced the engraftment"},
      {"measurement": "number of FA-like HSPCs with 53BP1 foci", "setting": "[4]; MMC 100 ng/mL 2 h, 24 h recovery", "value": "significantly reduced"},
      {"measurement": "number of FA-like HSPCs with γH2AX foci", "setting": "[4]; MMC 100 ng/ml 2 hrs, 24 hrs recovery", "value": "significantly reduced"}
    ]},
    {"compound": "O=C(NOC[C@H](O)CO)c1ccc(F)c(F)c1Nc1ccc(I)cc1F", "note": "[PD0325901]", "values": [
      {"measurement": "Erk1/2 phosphorylation", "setting": "[5]; mouse stromal cells exposed to MEK inhibitor", "value": "inhibition of Erk1/2 phosphorylation; also recorded: reduces p-Erk1/2 expression"},
      {"measurement": "clonogenicity / colony forming capacity of Fancd2−/− stromal cells", "setting": "[6]", "value": "significantly increased the clonogenicity"},
      {"measurement": "clonogenicity / colony forming capacity of Fancd2−/− stromal cells", "setting": "[6]; listed as Mek-i", "value": "improved"}
    ]},
    {"compound": "COc1cc2c(cc1OC)CN(C(=O)/C=C/c1c(-c3ccccc3)n(C)c3ncccc13)CC2", "note": "[SIS3]", "values": [
      {"measurement": "FA cells survival in the presence of MMC", "setting": "[7]; FA cell lines with inhibitor", "value": "improved FA cells survival in the presence of MMC"},
      {"measurement": "cytotoxicity of corrected FA cells", "setting": "[7]; corrected FA cells", "value": "do not significantly alter cytotoxicity of corrected FA cells"},
      {"measurement": "NHEJ activity", "setting": "[8]", "value": "decreased NHEJ"},
      {"measurement": "phosphorylation of DNA-PK", "setting": "[9]", "value": "blocks phosphorylation of DNA-PK"}
    ]},
    {"compound": "Cc1cccc(-c2nn3c(c2-c2ccnc4ccc(C(N)=O)cc24)CCC3)n1", "note": "[Galunisertib]", "values": [
      {"measurement": "pIpC-induced DNA damage in LT-HSCs, comet assay", "setting": "[10]; [12]", "value": "rescued the pIpC-induced DNA damage"},
      {"measurement": "pIpC-induced DNA damage, gamma H2AX foci", "setting": "[10]; [12]", "value": "rescued the pIpC-induced DNA damage"},
      {"measurement": "physiological stress-induced bone marrow failure", "setting": "[10]; mice, pIpC, pretreated in vivo", "value": "rescues physiological stress-induced bone marrow failure"}
    ]},
    {"compound": "TGF-β1: recombinant TGFβ1 cytokine (human from ProPeptide, mouse from R&D)", "values": [
      {"measurement": "pErk1/2 after mTGFβ1 exposure", "setting": "[5]; FA stromal cells", "value": "further activated pErk1/2"},
      {"measurement": "phosphorylation of DNA-PK", "setting": "[9]", "value": "activated phosphorylation of DNA-PK"},
      {"measurement": "clonogenic ability of Fancd2−/− HSPCs", "setting": "[11]", "value": "inhibited"}
    ]}
  ]
}
